Consider 18 molecules from US12064426B2, “Selective inhibitors of ROCK1 and ROCK2 protein kinases and uses thereof” (GENOSCO Inc., priority 2021, dated 2024).

The subject of experiment [1] is ROCK1/2 in A7r5 cells (pMLC2 levels). Nature of the experiment: Inhibition of ROCK1/2 in A7r5 cells, cell-based ELISA of phospho-myosin light chain (pMLC2, Thr18/Ser19). As to conditions: Rattus norvegicus, 1.5 h, treated with test compounds for 90 minutes, read-out: pMLC2 (cellular EC50). How it is done: Inhibition of ROCK1/2 in A7r5 cells was measured through cell-based ELISA assay. Rat aortic smooth muscle cell line A7r5 cells were maintained and treated in DMEM medium with 10% fetal bovine serum. Cells were seeded with 5,000 cells/well in 96 well plates for 24 hours and subsequently treated with test compounds for 90 minutes. Cells were then fixed and processed according to the In-Cell ELISA Colrimetric Detection Kit manual (Thermo Scientific). Cellular phospho-myosin light chain (pMLC2, Thr18/Ser19) levels were determined after treatment with DMSO control or a test compound using the In-Cell ELISA kit.
The resulting data was applied to the following formula ‘[1-(compound/DMSO)]×100%’ to calculate the percent inhibition rate. pMLC2 data obtained from 9 points 3-fold serial dilution of compounds were applied to the nonlinear regression curve fit function of the GraphPad Prism software to calculate the cellular EC50 values.
For orientation: ELISA stands for enzyme-linked immunosorbent assay.

In experiment [2] the target is T1, Recombinant ROCK1 (amino acids 1-477) (Homo sapiens, UniProt Q13464).
T1 construct: Recombinant ROCK1 (amino acids 1-477); by word order, ROCK1 from Carna Biosciences
Nature of the experiment: ROCK inhibition assay, LANCE Ultra TR-FRET kinase assay (ROCK1). The experiment is classed as biochemical. As to conditions: 1 μM ATP, 50 nM ULight-CREBtide substrate. In outline:
(§1)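 Reaction buffer 50 mM HEPES pH 7.5, 10 mM MgCl2, 1 mM EGTA, 2 mM DTT; kinase, ULight-CREBtide (50 nM) and ATP (ROCK1 1 μM, ROCK2 4 μM) react 1 h at room temperature. Phospho-Ser133 detected by europium antibody after 10 mM EDTA stop, TR-FRET ex 320 nm; IC50 calculated.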
(In general: TR-FRET usually uses a lanthanide donor and a delayed reading to cut background.)

Experiment [3] deals with T2, Recombinant ROCK2 (amino acids 5-554) (Homo sapiens, UniProt O75116).
T2 construct: ROCK2 (amino acids 5-554); by word order, ROCK2 from SignalChem
Nature of the experiment: ROCK inhibition assay, LANCE Ultra TR-FRET kinase assay (ROCK2). The experiment is classed as biochemical. As to conditions: 4 μM ATP, 50 nM ULight-CREBtide substrate. In outline:
as §1

For orientation: EC50 means the concentration at which the effect is half-maximal. For orientation: IC50 means the concentration needed to halve the response being measured.

T1 sequence (Q13464 1-477): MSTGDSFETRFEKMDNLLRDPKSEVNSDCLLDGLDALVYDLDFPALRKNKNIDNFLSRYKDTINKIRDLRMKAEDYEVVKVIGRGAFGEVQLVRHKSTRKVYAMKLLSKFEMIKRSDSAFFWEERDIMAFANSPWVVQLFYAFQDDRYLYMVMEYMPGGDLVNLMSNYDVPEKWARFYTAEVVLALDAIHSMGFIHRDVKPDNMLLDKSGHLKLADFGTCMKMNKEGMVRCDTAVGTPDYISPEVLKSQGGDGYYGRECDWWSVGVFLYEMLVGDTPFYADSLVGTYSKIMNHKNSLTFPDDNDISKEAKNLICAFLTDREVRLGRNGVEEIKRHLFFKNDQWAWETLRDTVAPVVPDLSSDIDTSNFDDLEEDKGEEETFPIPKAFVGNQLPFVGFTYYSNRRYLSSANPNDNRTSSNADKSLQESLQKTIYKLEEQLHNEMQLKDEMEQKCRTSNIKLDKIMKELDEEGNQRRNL
T2 sequence (O75116 5-554): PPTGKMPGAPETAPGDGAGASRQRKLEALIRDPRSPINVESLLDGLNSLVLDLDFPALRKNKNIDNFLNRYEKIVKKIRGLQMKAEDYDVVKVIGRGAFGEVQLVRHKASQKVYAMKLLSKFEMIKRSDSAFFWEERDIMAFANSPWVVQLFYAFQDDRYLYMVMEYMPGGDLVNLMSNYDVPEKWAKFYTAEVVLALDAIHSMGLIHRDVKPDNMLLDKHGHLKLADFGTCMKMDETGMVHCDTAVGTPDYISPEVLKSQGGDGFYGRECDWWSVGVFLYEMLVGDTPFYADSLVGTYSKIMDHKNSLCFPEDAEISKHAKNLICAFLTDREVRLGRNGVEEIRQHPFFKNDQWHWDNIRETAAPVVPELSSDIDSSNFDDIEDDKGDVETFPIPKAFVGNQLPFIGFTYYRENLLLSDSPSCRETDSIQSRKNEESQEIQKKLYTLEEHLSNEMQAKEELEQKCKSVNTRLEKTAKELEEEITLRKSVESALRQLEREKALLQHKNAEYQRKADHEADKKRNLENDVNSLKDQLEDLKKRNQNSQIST

Consider `Cc1nocc1-c1ccc2c(=O)n(Cc3cccc(C(=O)NC4CCOCC4)c3)ccc2c1` [Compound 77], for which, in experiment [1], the EC50 lay within 101 to 500 nM. Also, the results for the IC50 in experiment [2] and in experiment [3] were 11 to 100 nM and below 10 nM, respectively.
The corresponding values for `CNC(=O)c1cc(F)cc(Cn2ccc3cc(-c4conc4C)ccc3c2=O)c1` [Compound 315] are 501 to 1000 nM, 11 to 100 nM and below 10 nM.
The corresponding values for `Cc1nocc1-c1ccc2c(=O)n(Cc3cccc(C(=O)N[C@H]4CC[C@H](O)CC4)c3)ccc2c1` [Compound 75] are 101 to 500 nM, 101 to 500 nM and 10 to 100 nM.
The corresponding values for `Nc1cc(-c2ccc3c(=O)n(Cc4cccc(C(=O)NCCc5ccccn5)c4)cnc3c2)ccn1` [Compound 437] are 101 to 500 nM, 11 to 100 nM and below 10 nM.
Consider `Cc1nocc1-c1ccc2c(=O)n(Cc3cccc(C(=O)NC4CCN(CC(F)F)CC4)c3)ccc2c1` [Compound 86], for which the EC50 in experiment [1] is below 100 nM. In addition, the IC50 in experiment [2] is 11 to 100 nM; in experiment [3], below 10 nM.
As to `CNC(=O)c1cccc([C@@H](C)n2cnc3cc(-c4cn[nH]c4Cl)ccc3c2=O)c1` [Compound 466], the EC50 in experiment [1] is below 100 nM. Also, the IC50 was 11 to 100 nM in experiment [2] and below 10 nM in experiment [3].
As to `Cc1nocc1-c1ccc2c(=O)n(Cc3cccc(C(=O)NCC4CCN(CC(F)F)CC4)c3)ccc2c1` [Compound 82], the EC50 in experiment [1] is below 100 nM. Moreover, the IC50 was 101 to 500 nM in experiment [2] and 10 to 100 nM in experiment [3].
The corresponding values for `CNC(=O)c1cc(F)cc(Cn2ccc3cc(-c4cn[nH]c4C(F)(F)F)ccc3c2=O)c1` [Compound 281] are 101 to 500 nM, 11 to 100 nM and below 10 nM.
For `Nc1cc(-c2ccc3c(=O)n(Cc4cccc(C(=O)Nc5ccc6c(c5)CCNC6)c4)ccc3c2)ccn1` [Compound 188], the EC50 in experiment [1] was below 100 nM. Besides, the IC50 in experiment [2] was 11 to 100 nM; in experiment [3], below 10 nM.
The corresponding values for `CNC(=O)c1cccc(Cn2ccc3cc(-c4cn[nH]c4C(F)(F)F)ncc3c2=O)c1` [Compound 233] are 101 to 500 nM, 11 to 100 nM and below 10 nM.
With `CN(C)Cc1ccccc1Cn1ccc2cc(-c3ccnc(N)c3)ccc2c1=O` [Compound 25], in experiment [1], the EC50 was 101 to 500 nM. Also, the results for the IC50 in experiment [2] and in experiment [3] were 11 to 100 nM and below 10 nM, respectively.
The corresponding values for `CNC(=O)c1cccc([C@@H](C)n2cnc3cc(-c4conc4C)ccc3c2=O)c1` [Compound 469] are below 100 nM, 11 to 100 nM and below 10 nM.
The corresponding values for `COc1cccc(Cn2ccc3cc(-c4ccncc4)ccc3c2=O)c1` [Compound 22] are below 100 nM, below 10 nM and below 10 nM.
The corresponding values for `CNC(=O)c1cccc(Cn2ccc3cc(-c4conc4C)ccc3c2=O)c1` [Compound 277] are 501 to 1000 nM, 101 to 500 nM and below 10 nM.
As for `Nc1cc(-c2ccc3c(=O)n(Cc4cccc(C(=O)NCCc5ccccn5)c4)ccc3c2)ccn1` [Compound 186], in experiment [1], the half-maximal effective concentration (EC50) was below 100 nM. The IC50 in experiment [2] was 11 to 100 nM; in experiment [3], below 10 nM.
For the molecule `CNC(=O)c1cccc([C@@H](C)n2cnc3cc(-c4cn[nH]c4C(F)(F)F)ccc3c2=O)c1` [Compound 440, (R)—N-methyl-3-(1-(4-oxo-7-(5-(trifluoromethyl)-1H-pyrazol-4-yl)quinazolin-3(4H)-yl)ethyl)benzamide], the EC50 in experiment [1] lay within 101 to 500 nM. The IC50 in experiment [2] is 11 to 100 nM; in experiment [3] it was below 10 nM.
Regarding `CNC(=O)c1cc(F)cc(Cn2ccc3cc(-c4ccnn4C)ccc3c2=O)c1` [Compound 323], the EC50 in experiment [1] was in the range of 101 to 500 nM. Also, the IC50 in experiment [2] fell in the range of 101 to 500 nM; in experiment [3] it was 10 to 100 nM.
For the molecule `Cc1nocc1-c1ccc2c(=O)n(Cc3cccc(O)c3)ccc2c1` [Compound 10], the EC50 in experiment [1] was below 100 nM. The IC50 in experiment [2] is 11 to 100 nM; in experiment [3] it was below 10 nM.
